Experimental data from patent publication US8669265B2, “Hydrated form of erlotinib free base and a process for preparation of erlotinib hydrochloride polymorph form a substantially free of polymorph form B” (Hetero Research Foundation, priority 2007, dated 2014).

Key:
[1] = Particle size distribution by laser diffraction (Sympatec Helos, 1 bar dispersive pressure); type: physicochemical; details: isolated crystalline product of the example; hydrochloride
From the text: The term “Particle Size Distribution (P.S.D.)” means the cumulative volume size distribution of equivalent spherical diameters as determined by laser diffraction at 1 bar dispersive pressure in a Sympatec Helos equipment. “Mean particle size distribution, i.e., d(0.5)” correspondingly, means the median of said particle size distribution.

[2] = Hygroscopicity and storage stability of the crystalline form (stated in words); type: physicochemical

90 volume-% of the particles (D90) [1] | Mean particle size (D50) [1] | Storage stability [2] | Hygroscopicity [2] | SMILES
4.53 μm | 3.42 μm |  |  | C#Cc1cccc(Nc2ncnc3cc(OCCOC)c(OCCOC)cc23)c1.Cl [Reference Example 1, N-(3-ethynylphenyl)-6,7-bis(2-methoxyethoxy)-4-quinazolinamine hydrochloride]
7.74 μm |  |  |  | C#Cc1cccc(Nc2ncnc3cc(OCCOC)c(OCCOC)cc23)c1.Cl [Reference Example 2, N-(3-ethynylphenyl)-6,7-bis(2-methoxyethoxy)-4-quinazolinamine hydrochloride]
 |  | storage stable over the time | non-hygroscopic | C#Cc1cccc(Nc2ncnc3cc(OCCOC)c(OCCOC)cc23)c1 [crystalline erlotinib hydrate, erlotinib hydrate]

Continued, molecule first:

SMILES | 90 volume-% of the particles (D90) [1] | Mean particle size (D50) [1] | Storage stability [2] | Hygroscopicity [2]
C#Cc1cccc(Nc2ncnc3cc(OCCOC)c(OCCOC)cc23)c1.Cl [Example 6, N-(3-ethynylphenyl)-6,7-bis(2-methoxyethoxy)-4-quinazolinamine hydrochloride] | 18.96 μm | 5.48 μm |  | 
C#Cc1cccc(Nc2ncnc3cc(OCCOC)c(OCCOC)cc23)c1.Cl [N-(3-ethynylphenyl)-6,7-bis(2-methoxyethoxy)-4-quinazolinamine hydrochloride] |  |  | stable over the time | 
C#Cc1cccc(Nc2ncnc3cc(OCCOC)c(OCCOC)cc23)c1.Cl [Reference Example 5, N-(3-ethynylphenyl)-6,7-bis(2-methoxyethoxy)-4-quinazolinamine hydrochloride] | 4.61 μm | 3.50 μm |  | 
